ChEMBL document CHEMBL4017496 (J Med Chem, 2017)
The source made the active and inactive calls. No cut-off for these calls is given here.

Legend:
[1] = biological target: T1, Oxysterols receptor LXR-beta (Homo sapiens) (UniProt P55055); test: Binding affinity to human LXRbeta at 4 uM by TR-FRET assay
T1 sequence (whole entry): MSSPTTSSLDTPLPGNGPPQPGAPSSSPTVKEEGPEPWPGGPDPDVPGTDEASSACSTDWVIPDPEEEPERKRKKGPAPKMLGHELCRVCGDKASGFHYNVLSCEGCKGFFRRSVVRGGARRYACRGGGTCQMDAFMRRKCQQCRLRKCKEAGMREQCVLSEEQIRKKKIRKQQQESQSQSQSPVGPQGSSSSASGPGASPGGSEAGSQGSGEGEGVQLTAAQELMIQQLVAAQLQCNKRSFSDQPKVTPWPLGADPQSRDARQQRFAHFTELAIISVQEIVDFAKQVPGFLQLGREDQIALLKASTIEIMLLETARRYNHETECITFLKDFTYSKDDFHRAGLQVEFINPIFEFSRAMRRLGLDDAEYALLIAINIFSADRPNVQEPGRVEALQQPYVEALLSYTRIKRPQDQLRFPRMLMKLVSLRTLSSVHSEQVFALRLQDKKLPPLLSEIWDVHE

Mesenchymal stem cell [2] = test: Induction of adipogenesis in human bone marrow-derived mesenchymal stem cells assessed as increase in adiponectin production at 20.4 uM after 7 days in presence of IDX; type: functional, cell-based
Mesenchymal stem cell [3] = test: Induction of adipogenesis in human bone marrow-derived mesenchymal stem cells assessed as increase in the production of adiponectin measured on day 7 after 48 hrs by ELISA; type: functional, cell-based
[4] = biological target: T2, Oxysterols receptor LXR-alpha (Homo sapiens) (UniProt Q13133); test: Binding affinity to human LXRalpha at 4 uM by TR-FRET assay
T2 sequence (whole entry): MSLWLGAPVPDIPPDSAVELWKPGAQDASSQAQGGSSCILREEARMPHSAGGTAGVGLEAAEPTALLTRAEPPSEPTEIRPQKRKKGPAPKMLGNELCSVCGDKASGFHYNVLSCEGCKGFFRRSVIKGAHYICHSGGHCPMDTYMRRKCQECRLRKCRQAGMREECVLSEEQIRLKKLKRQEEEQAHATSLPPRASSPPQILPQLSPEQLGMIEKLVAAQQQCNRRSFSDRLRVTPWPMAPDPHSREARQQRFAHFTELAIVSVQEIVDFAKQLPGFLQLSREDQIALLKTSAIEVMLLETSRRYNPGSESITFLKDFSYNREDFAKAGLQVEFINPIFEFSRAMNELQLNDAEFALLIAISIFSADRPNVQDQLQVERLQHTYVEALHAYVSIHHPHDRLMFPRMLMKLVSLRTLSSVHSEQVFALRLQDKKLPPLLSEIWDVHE

Mesenchymal stem cell [5] = test: Induction of adipogenesis in human bone marrow-derived mesenchymal stem cells assessed as increase in number and size of lipid droplets at 20 uM after 7 days in presence of IDX by oil red O staining based inverted microscopic method; type: functional
[6] = biological target: T3, Peroxisome proliferator-activated receptor delta (Homo sapiens) (UniProt Q03181); test: Displacement of Fluormone-Pan-PPAR Green from human GST-tagged PPARdelta LBD at 4 uM by TR-FRET assay relative to control
T3 sequence (whole entry): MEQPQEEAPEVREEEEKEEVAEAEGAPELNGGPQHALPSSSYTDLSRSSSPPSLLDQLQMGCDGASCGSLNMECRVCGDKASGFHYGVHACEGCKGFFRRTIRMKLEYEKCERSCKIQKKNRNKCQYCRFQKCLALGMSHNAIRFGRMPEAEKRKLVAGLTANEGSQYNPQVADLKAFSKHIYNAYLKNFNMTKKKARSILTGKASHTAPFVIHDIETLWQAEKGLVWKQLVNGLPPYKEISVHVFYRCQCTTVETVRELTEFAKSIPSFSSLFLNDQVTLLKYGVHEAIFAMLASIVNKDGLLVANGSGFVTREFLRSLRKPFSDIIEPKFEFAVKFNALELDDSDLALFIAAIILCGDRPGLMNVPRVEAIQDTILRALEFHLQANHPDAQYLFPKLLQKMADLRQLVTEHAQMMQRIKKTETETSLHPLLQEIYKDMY

Mus musculus [7] = test: Antidiabetic activity in STZ-induced diabetic C57BL/6J mouse assessed as insulin sensitivity by measuring reduction of serum triglyceride level at 20 mg/kg,po for 5 days; type: functional, organism-based
Mus musculus [8] = test: Antidiabetic activity in STZ-induced diabetic C57BL/6J mouse assessed as insulin sensitivity by measuring reduction of serum lactate level at 20 mg/kg,po for 5 days; type: functional, organism-based
[9] = biological target: T4, Peroxisome proliferator-activated receptor alpha (Homo sapiens) (UniProt Q07869); test: Displacement of Fluormone-Pan-PPAR Green from human GST-tagged PPARalpha LBD at 20 uM by TR-FRET assay relative to control
T4 sequence (whole entry): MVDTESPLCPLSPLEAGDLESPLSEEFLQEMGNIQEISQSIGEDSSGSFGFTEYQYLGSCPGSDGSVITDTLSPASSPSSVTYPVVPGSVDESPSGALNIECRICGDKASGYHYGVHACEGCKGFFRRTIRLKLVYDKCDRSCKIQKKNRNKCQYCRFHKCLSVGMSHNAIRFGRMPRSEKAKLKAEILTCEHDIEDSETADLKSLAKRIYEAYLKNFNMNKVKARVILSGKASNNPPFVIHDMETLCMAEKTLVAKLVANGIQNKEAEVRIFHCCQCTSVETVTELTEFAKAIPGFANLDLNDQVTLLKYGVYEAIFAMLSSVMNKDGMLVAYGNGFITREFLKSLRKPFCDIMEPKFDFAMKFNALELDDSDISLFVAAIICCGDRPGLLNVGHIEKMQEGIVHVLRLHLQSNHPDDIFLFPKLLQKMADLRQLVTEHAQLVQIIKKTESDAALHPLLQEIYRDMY

[10] = biological target: T3, Peroxisome proliferator-activated receptor delta (Homo sapiens); test: Displacement of Fluormone-Pan-PPAR Green from human GST-tagged PPARdelta LBD at 20 uM by TR-FRET assay relative to control
[11] = biological target: T3, Peroxisome proliferator-activated receptor delta (Homo sapiens); test: Transactivation of human GST-tagged PPARdelta LBD assessed as fluorescein-C33 coactivator recruitment at 10 uM by TR-FRET assay

`CNC(=O)[C@H]1O[C@@H](n2cnc3c(NCc4cccc(I)c4)ncnc32)[C@H](O)[C@@H]1O` [IB-MECA] was tested, and the Activity [1] was “inactive”, the Activity (Mesenchymal stem cell [2]) was “Active” and the Activity (Mesenchymal stem cell [3]) was “Dose-dependent effect”. The Activity [4] was “inactive”, the Activity (Mesenchymal stem cell [5]) was “Active” and the inhibition [6] was 26%. For the same molecule, the Activity (Mus musculus [7]) was “Active”, the Activity (Mus musculus [8]) was “Active” and the inhibition [9] was 16%. The inhibition [10] was 48.3% and the Activity [11] was “inactive”.
